Laboratory results as given in publication PMC8253220, “Molecular design, synthesis and in vitro biological evaluation of thienopyrimidine–hydroxamic acids as chimeric kinase HDAC inhibitors: a challenging approach to combat cancer” (Journal of Enzyme Inhibition and Medicinal Chemistry, 2021).
Values joined by “and” are separate entries in the source; they are usually repeats but may differ in a detail not shown here. Equal values may be shown once.

Assays:
Assay in all cases: NCI one-dose screen
Type in all cases: cell-based, human
786-0 = details: Renal 786-0, 10 µM single dose
Outline: (§1)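 At 10 μM, a single concentration, compounds were evaluated for antiproliferative effect in the NCI 60-line screen, with growth expressed relative to untreated control cells.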

MDA-MB-468 = details: for Growth Percent: Breast MDA-MB-468, 10 µM single dose
Outline: (§2)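 Growth of treated cells is compared with untreated controls to give percent inhibition. Compounds are applied once at 10 μM across the NCI 60 cancer cell panel.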

MDA-MB-231/ATCC = details: Breast MDA-MB-231/ATCC, 10 µM single dose
Outline: as §1

NCI-H23 = details: NSCLC NCI-H23, 10 µM single dose
Outline: as §2

NCI-H226 = details: for Growth Percent: NSCLC NCI-H226, 10 µM single dose
Outline: (§3)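 One concentration (10 μM) applied to each line of the full NCI-60 panel; percent growth compared against untreated cells.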

RXF 393 = details: Renal RXF 393, 10 µM single dose
Outline: as §1

U251 = details: CNS U251, 10 µM single dose
Outline: as §3

K-562 = details: Leukemia K-562, 10 µM single dose
Outline: as §1

ACHN = details: Renal ACHN, 10 µM single dose
Outline: as §1

MCF7 = details: Breast MCF7, 10 µM single dose
Outline: as §2

IGROV1 = details: Ovarian IGROV1, 10 µM single dose
Outline: as §1

OVCAR-4 = details: Ovarian OVCAR-4, 10 µM single dose
Outline: as §1

HCT-15 = details: Colon HCT-15, 10 µM single dose
Outline: as §1

OVCAR-5 = details: Ovarian OVCAR-5, 10 µM single dose
Outline: as §1

LOX IMVI = details: Melanoma LOX IMVI, 10 µM single dose
Outline: as §1

COLO 205 = details: Colon COLO 205, 10 µM single dose
Outline: as §1

NCI-H522 = details: for Growth Percent: NSCLC NCI-H522, 10 µM single dose
Outline: as §3

PC-3 = details: Prostate PC-3, 10 µM single dose
Outline: (§4)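 Compounds were tested at a single dose of 10 μM across the full NCI-60 cell line panel. Growth was expressed as percent growth relative to untreated control cells, reported as percent inhibition.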

BT-549 = details: Breast BT-549, 10 µM single dose
Outline: as §1

OVCAR-3 = details: Ovarian OVCAR-3, 10 µM single dose
Outline: as §1

SN12C = details: Renal SN12C, 10 µM single dose
Outline: as §1

DU-145 = details: Prostate DU-145, 10 µM single dose
Outline: as §1

HOP-62 = details: NSCLC HOP-62, 10 µM single dose
Outline: as §1

SK-MEL-28 = details: Melanoma SK-MEL-28, 10 µM single dose
Outline: as §4

SNB-75 = details: for Growth Percent: CNS SNB-75, 10 µM single dose; for inhibition at 10 µM: Homo sapiens, CNS SNB-75, 10 μM
Outline: as §3

SW-620 = details: Colon SW-620, 10 µM single dose
Outline: as §4

CCRF-CEM = details: Leukemia CCRF-CEM, 10 µM single dose
Outline: as §1

HOP-92 = details: NSCLC HOP-92, 10 µM single dose
Outline: as §1

EKVX = details: NSCLC EKVX; for Growth Percent: 10 µM single dose
Outline: as §3

SK-MEL-5 = details: Melanoma SK-MEL-5, 10 µM single dose
Outline: as §1

HCC-2998 = details: Colon HCC-2998, 10 µM single dose
Outline: as §1

SF-268 = details: CNS SF-268, 10 µM single dose
Outline: as §2

TK-10 = details: Renal TK-10, 10 µM single dose
Outline: as §1

OVCAR-8 = details: Ovarian OVCAR-8, 10 µM single dose
Outline: as §1

MALME-3M = details: Melanoma MALME-3M, 10 µM single dose
Outline: as §1

SMILES: Cc1c(C(=O)NO)sc2ncnc(Nc3ccc(Cl)cc3)c12 [Compound 15c, 4–(4-chlorophenylamino)-N-hydroxy-5-methylthieno[2,3-d]pyrimidine-6-carboxamide]
- Growth Percent (786-0): 108.7% and 108.78%
- Growth Percent (MDA-MB-468): 102.9% and 102.91%
- Growth Percent (MDA-MB-231/ATCC): 88.1% and 88.18%
- Growth Percent (NCI-H23): 91.8% and 91.83%
- Growth Percent (NCI-H226): 85.6% and 85.66%
- Growth Percent (RXF 393): 106.7% and 106.75%
- Growth Percent (U251): 100.9% and 100.96%
- Growth Percent (K-562): 105.0%
- Growth Percent (ACHN): 97.3% and 97.37%
- Growth Percent (MCF7): 88.6%
- Growth Percent (IGROV1): 72.7% and 72.73%
- Growth Percent (OVCAR-4): 106.3% and 106.34%
- Growth Percent (HCT-15): 101.7% and 101.72%
- Growth Percent (OVCAR-5): 107.6% and 107.61%
- Growth Percent (LOX IMVI): 95.8% and 95.88%
- Growth Percent (COLO 205): 116.7% and 116.75%
- inhibition at 10 µM (NCI-H522; Homo sapiens, NSCLC NCI-H522, 10 μM): 25.4%
- Growth Percent (NCI-H522): 74.5% and 74.57%
- Growth Percent (PC-3): 97.6% and 97.64%
- Growth Percent (BT-549): 116.4% and 116.44%
- Growth Percent (OVCAR-3): 98.9% and 98.94%
- Growth Percent (SN12C): 98.6% and 98.63%
- Growth Percent (DU-145): 108.8% and 108.86%
- Growth Percent (HOP-62): 92.8% and 92.81%
- Growth Percent (SK-MEL-28): 110.6% and 110.64%
- Growth Percent (SNB-75): 79.5% and 79.59%
- inhibition at 10 µM (SNB-75): 20.4%
- Growth Percent (SW-620): 102.6% and 102.65%
- Growth Percent (CCRF-CEM): 103.4% and 103.44%
- Growth Percent (HOP-92): 101.5% and 101.51%
- inhibition at 10 µM (EKVX; Homo sapiens, 10 μM): 20.6%
- Growth Percent (EKVX): 79.4% and 79.43%
- Growth Percent (SK-MEL-5): 96.9% and 96.96%
- Growth Percent (HCC-2998): 115.4% and 115.42%
- Growth Percent (SF-268): 94.8% and 94.84%
- Growth Percent (TK-10): 154.5% and 154.58%
- Growth Percent (OVCAR-8): 102.0% and 102.02%
- Growth Percent (MALME-3M): 102.3% and 102.31%

SMILES: Cc1c(C(=O)NCCCC(=O)NO)sc2ncnc(Nc3ccc(F)c(Cl)c3)c12 [Compound 20d, 4–(3-chloro-4-fluorophenylamino)-N-(4-(hydroxyamino)-4-oxobutyl)-5-methylthieno[2,3-d]pyrimidine-6-carboxamide]
- Growth Percent (786-0): 104.6% and 104.67%
- Growth Percent (MDA-MB-468): 83.8% and 83.88%
- inhibition at 10 µM (MDA-MB-468; Homo sapiens, breast MDA-MB-468, 10 μM): 16.2%
- Growth Percent (MDA-MB-231/ATCC): 99.7% and 99.77%
- Growth Percent (NCI-H23): 98.9% and 98.94%
- inhibition at 10 µM (NCI-H226; Homo sapiens, NSCLC NCI-H226, 10 μM): 11.3%
- Growth Percent (NCI-H226): 88.7% and 88.71%
- Growth Percent (RXF 393): 102.5% and 102.57%
- Growth Percent (U251): 99.1% and 99.18%
- Growth Percent (K-562): 117.4% and 117.47%
- Growth Percent (ACHN): 102.2% and 102.28%
- Growth Percent (MCF7): 91.4% and 91.48%
- Growth Percent (IGROV1): 98.9% and 98.94%
- Growth Percent (OVCAR-4): 104.8% and 104.88%
- Growth Percent (HCT-15): 99.6% and 99.67%
- Growth Percent (OVCAR-5): 100.1% and 100.15%
- Growth Percent (LOX IMVI): 96.3%
- Growth Percent (COLO 205): 119.1% and 119.14%
- Growth Percent (NCI-H522): 92.6% and 92.67%
- Growth Percent (PC-3): 105.3% and 105.36%
- Growth Percent (BT-549): 117.9% and 117.96%
- Growth Percent (OVCAR-3): 108.4% and 108.42%
- Growth Percent (SN12C): 103.5% and 103.55%
- Growth Percent (DU-145): 109.9% and 109.99%
- Growth Percent (HOP-62): 105.6% and 105.66%
- Growth Percent (SK-MEL-28): 111.4% and 111.42%
- Growth Percent (SNB-75): 90.4% and 90.45%
- Growth Percent (SW-620): 103.1% and 103.17%
- Growth Percent (CCRF-CEM): 107.9% and 107.95%
- Growth Percent (HOP-92): 118.7% and 118.75%
- Growth Percent (EKVX): 94.4% and 94.41%
- Growth Percent (SK-MEL-5): 100.4% and 100.45%
- Growth Percent (HCC-2998): 104.1% and 104.19%
- Growth Percent (SF-268): 95.2%
- Growth Percent (TK-10): 124.1% and 124.14%
- Growth Percent (OVCAR-8): 99.6% and 99.61%
- Growth Percent (MALME-3M): 115.8% and 115.88%

SMILES: Cc1c(C(=O)NCCCC(=O)NO)sc2ncnc(Nc3ccc(NC(=O)Nc4cccc(C(F)(F)F)c4)cc3)c12 [Compound 12c, 1–(4-(6-((4-(hydroxyamino)-4-oxobutyl)carbamoyl)-5-methylthieno[2,3-d]pyrimidin-4-ylamino)phenyl)-3–(3-(trifluoromethyl)phenyl)urea]
- Growth Percent (786-0): 106.6% and 106.68%
- Growth Percent (MDA-MB-468): 105.6% and 105.66%
- Growth Percent (MDA-MB-231/ATCC): 99.1% and 99.12%
- Growth Percent (NCI-H23): 104.6% and 104.64%
- Growth Percent (NCI-H226): 105.6% and 105.63%
- Growth Percent (RXF 393): 108.5% and 108.58%
- Growth Percent (U251): 87.3% and 87.39%
- Growth Percent (K-562): 103.8% and 103.86%
- Growth Percent (ACHN): 105.9% and 105.92%
- Growth Percent (MCF7): 95.2% and 95.26%
- Growth Percent (IGROV1): 116.7% and 116.77%
- Growth Percent (OVCAR-4): 110.1% and 110.14%
- Growth Percent (HCT-15): 99.9% and 99.96%
- Growth Percent (OVCAR-5): 111.3% and 111.33%
- Growth Percent (LOX IMVI): 98.1% and 98.14%
- Growth Percent (COLO 205): 114.9% and 114.97%
- Growth Percent (NCI-H522): 94.1% and 94.19%
- Growth Percent (PC-3): 111.1% and 111.12%
- Growth Percent (BT-549): 118.8% and 118.81%
- Growth Percent (OVCAR-3): 117.8% and 117.86%
- Growth Percent (SN12C): 104.6% and 104.65%
- Growth Percent (DU-145): 106.6% and 106.64%
- Growth Percent (HOP-62): 103.3%
- Growth Percent (SK-MEL-28): 109.2% and 109.22%
- Growth Percent (SNB-75): 70.7% and 70.76%
- inhibition at 10 µM (SNB-75): 29.2%
- Growth Percent (SW-620): 109.4% and 109.44%
- Growth Percent (CCRF-CEM): 107.8% and 107.81%
- Growth Percent (HOP-92): 130.0% and 130.03%
- Growth Percent (EKVX): 100.0% and 100.09%
- Growth Percent (SK-MEL-5): 100.9% and 100.91%
- Growth Percent (HCC-2998): 113.6% and 113.65%
- Growth Percent (SF-268): 98.7% and 98.75%
- Growth Percent (TK-10): 117.7% and 117.79%
- Growth Percent (OVCAR-8): 105.9% and 105.93%
- Growth Percent (MALME-3M): 116.7% and 116.65%
